Results as given in patent US20210355104A1, “ADENOSINE RECEPTOR BINDING COMPOUNDS” (Nikang Therapeuticsm Inc., priority 2018, published 2021).
Where “and” joins values, the source holds several entries; their conditions need not be identical. Identical values can stand only once. Like-named read-outs stand apart in the source and are kept apart here.

Experiments:
[1] = system: p-CREB (phosphorylated cAMP response-element binding protein) in human whole blood; test: p-CREB assay in human whole blood by flow cytometry (NECA stimulation, CD4 staining); assay type: cell-based
Method: Assay protocol for p-CREB (phosphorylated cAMP response-element binding protein) in human whole blood by flow cytometry
Fresh human whole blood (Biological Specialty Corporation) was added at 100 ul per wellinto a 96-well plate and treated with test compounds (Serial dilutions of 1:3 with starting concentration at 30 uM, 11 concentrations total, in the presence of adenosine deaminase) for one hour at room temperature on a plate shaker. Then 10 ul of 10× NECA (50 uM stock in PBS) and 10 ul of 10 × Rolipram (50 uM stock in PBS) were added, with designated wells for unstimulated (Rolipram+DMSO) and stimulated (Rolipram+NECA+DMSO) conditions. The plates were mixed well and incubated at room temperature for 30 min on a plate shaker. 1× lyse/Fix buffer (5× stock, BD #558049) was warmed to 37° in a water bath. 1200 ul of pre-warmed 1× lyse/Fix buffer was then added to the plate, which was then sealed and mixed by inverting the plate a few times. The plate was then incubated for 30 min at 37° in a water bath. After incubation, the plate was centrifuged at 1600 rpm for 5 min and the supernatant was decanted, then 1200 ul PBS was added and the plate was mixed by inverting a few times followed by centrifuging at 1600 rpm for 5 min and again decanting the supernatant. Then, 200 ul FIX PERM buffer II (BD #558052) was added and the plate was mixed well, then kept on ice for 45 min After spinning the plate at 1600 rpm for 5 min the supernatant was again decanted. Then was added 200 ul staining buffer (BD #554657), and the plate was mixed well and spun at 1600 rpm for 5 min, then the supernatant was again decanted. 200 ul staining buffer was added, the plate was mixed well and the plate was sealed at this step for storage at 4° overnight or until staining. Before staining, the plate was spun at 1600 rpm for 5 min and the supernatant was again decanted. Antibody mix in staining buffer was prepared (75 ul/well, 1:50 dilution for p-CREB antibody from Cell Signaling Tech #14001S, 1:200 dilution for CD4 antibody from BD #566320) and the cells were resuspended in the above antibody mix solution. After mixing well, the plate was incubated (shielded from light) at room temperature for two hours on a plate shaker. It was then spun at 1600 rpm for 5 min and the supernatant was decanted. 200 ul staining buffer was then added to wash cells, and the plate was then mixed by shaking or pipetting. The wash step was repeated at least one more time, and after the final wash, cells were resusptended in 200 ul staining buffer in U bottom plate for flow cytometry analysis.

Adenosine A2A receptor = Adenosine A2A receptor (Homo sapiens, UniProt P29274); test: cAMP assay in 293A cells stably expressing the adenosine A2A receptor (CGS21680 stimulation, HTRF); assay type: cell-based; parameters: expressed in transfected cells; host or cells: 293A cells (Invitrogen, Cat# R705-07) infected with A2A-expressing lentivirus (custom packaged by Biosettia), puromycin selected; conditions: 0.1% BSA, read-out: cAMP (nM) 0.1% BSA, 1 uM CGS
[2] = Homo sapiens, replicate values separated by /
[3] = 293A cells stably expressing A2A receptor, 1 uM CGS21680 stimulation, replicate values separated by /

Chain of Adenosine A2A receptor (P29274 whole entry): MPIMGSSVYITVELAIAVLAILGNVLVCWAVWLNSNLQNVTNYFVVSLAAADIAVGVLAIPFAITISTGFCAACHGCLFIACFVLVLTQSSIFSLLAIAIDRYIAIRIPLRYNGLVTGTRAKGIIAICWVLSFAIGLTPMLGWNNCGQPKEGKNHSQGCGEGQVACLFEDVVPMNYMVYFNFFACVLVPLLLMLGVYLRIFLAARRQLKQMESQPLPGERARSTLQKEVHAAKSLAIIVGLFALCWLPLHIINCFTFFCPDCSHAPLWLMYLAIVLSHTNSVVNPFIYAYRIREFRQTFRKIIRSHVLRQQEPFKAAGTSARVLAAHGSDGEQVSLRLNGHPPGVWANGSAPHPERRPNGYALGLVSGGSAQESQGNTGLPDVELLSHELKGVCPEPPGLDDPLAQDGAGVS

| SMILES | IC50 [1, 2] [nM] | IC50 (Adenosine A2A receptor; [3]) | IC50 ([1]; Homo sapiens) [nM] | IC50 (Adenosine A2A receptor; 293A-A2AR cells, 1 uM CGS) | IC50 ([1]; replicate values separated by /) [nM] |
| --- | --- | --- | --- | --- | --- |
| Cc1cc(-c2c(OCc3cccc(C4(C(=O)O)CCC4)n3)nc(N)nc2-c2ccc(F)cc2)cc(C(F)F)n1 [Example 392, 1-(6-(((2-amino-5-(2-(difluoromethyl)-6-methylpyridin-4-yl)-6-(4-fluorophenyl)pyrimidin-4-yl)oxy)methyl)pyridin-2-yl)cyclobutane-1-carboxylic acid] |  |  | 353 | 186 nM and 139 nM and 180 nM and 209 nM |  |
| Cc1cc(-c2c(OCc3cc(C(C)(C)C#N)ccn3)nc(N)nc2-c2ccc(F)cc2)cc(C(F)F)n1 [Example 257, 2-(2-(((2-amino-5-(2-(difluoromethyl)-6-methylpyridin-4-yl)-6-(4-fluorophenyl)pyrimidin-4-yl)oxy)methyl)pyridin-4-yl)-2-methylpropanenitrile] |  |  | 19 | 250 nM and 171 nM |  |
| Cc1cc(-c2c(OCc3cccc(-c4nn[nH]n4)n3)nc(N)nc2-c2ccc(F)cc2)cc(C(F)F)n1 [Example 399, 4-((6-(2H-tetrazol-5-yl)pyridin-2-yl)methoxy)-5-(2-(difluoromethyl)-6-methylpyridin-4-yl)-6-(4-fluorophenyl)pyrimidin-2-amine] | 201 | 273 nM and 362 nM and 482 nM and 440 nM |  |  |  |
| COC(=O)NCc1cccc(COc2nc(N)nc(-c3ccc(F)cc3)c2-c2cc(C)nc(C(F)F)c2)n1 [Example 410, methyl((6-(((2-amino-5-(2-(difluoromethyl)-6-methylpyridin-4-yl)-6-(4-fluorophenyl)pyrimidin-4-yl)oxy)methyl)pyridin-2-yl)methyl)carbamate] | 20 | 97 nM and 142 nM and 124 nM and 178 nM |  |  |  |
| Cc1cc(-c2c(OCc3cccc(CNC(CO)CO)n3)nc(N)nc2-c2ccc(F)cc2)cc(C(F)F)n1 [Example 419, 2-(((6-(((2-amino-5-(2-(difluoromethyl)-6-methylpyridin-4-yl)-6-(4-fluorophenyl)pyrimidin-4-yl)oxy)methyl)pyridin-2-yl)methyl)amino)propane-1,3-diol] | 87.8 | 470 nM and 311 nM |  |  |  |
| Cc1cc(-c2c(OCc3ncccc3C(C)(C)O)nc(N)nc2-c2ccc(F)cc2)cc(C(F)F)n1 [Example 238] |  |  | 36.3 | 313 nM |  |
| Cc1cc(-c2c(OCCc3ccccn3)nc(N)nc2-c2ccc(F)cc2)cc(C(F)F)n1 [Example 313, 5-(2-(difluoromethyl)-6-methylpyridin-4-yl)-4-(4-fluorophenyl)-6-(2-(pyridin-2-yl)ethoxy)pyrimidin-2-amine] |  |  | 71.5 | 20 nM and 64 nM |  |
| CNC(=O)OCc1cccc(COc2nc(N)nc(-c3ccc(F)cc3)c2-c2cc(C)nc(C(F)F)c2)n1 [Example 425, (6-(((2-amino-5-(2-(difluoromethyl)-6-methylpyridin-4-yl)-6-(4-fluorophenyl)pyrimidin-4-yl)oxy)methyl)pyridin-2-yl)methyl methylcarbamate] | 33.3 | 35 nM and 74 nM and 23 nM |  |  | 29 |

The remaining lines, values ahead:

| IC50 [1, 2] [nM] | IC50 (Adenosine A2A receptor; [3]) | IC50 ([1]; Homo sapiens) [nM] | IC50 (Adenosine A2A receptor; 293A-A2AR cells, 1 uM CGS) | IC50 ([1]; replicate values separated by /) [nM] | SMILES |
| --- | --- | --- | --- | --- | --- |
| 2000 | 412 nM and 315 nM and 310 nM |  |  |  | Cc1cc(-c2c(OCc3cccc(C(C#N)(CCO)CCO)n3)nc(N)nc2-c2ccc(F)cc2)cc(C(F)F)n1 [Example 431, 2-(6-(((2-amino-5-(2-(difluoromethyl)-6-methylpyridin-4-yl)-6-(4-fluorophenyl)pyrimidin-4-yl)oxy)methyl)pyridin-2-yl)-4-hydroxy-2-(2-hydroxyethyl)butanenitrile] |
| 95 | 215 nM |  |  |  | CNC(=O)CNCc1cccc(COc2nc(N)nc(-c3ccc(F)cc3)c2-c2cc(C)nc(C(F)F)c2)n1 [Example 440, 2-(((6-(((2-amino-5-(2-(difluoromethyl)-6-methylpyridin-4-yl)-6-(4-fluorophenyl)pyrimidin-4-yl)oxy)methyl)pyridin-2-yl)methyl)amino)-N-methylacetamide] |
| 33 | 59 nM and 43 nM |  |  |  | Cc1cc(-c2c(OCc3cccc(COC(N)=O)n3)nc(N)nc2-c2ccc(F)cc2)cc(C(F)F)n1 [Example 429, (6-(((2-amino-5-(2-(difluoromethyl)-6-methylpyridin-4-yl)-6-(4-fluorophenyl)pyrimidin-4-yl)oxy)methyl)pyridin-2-yl)methyl carbamate] |
